Measurements: patent publication US20140194477A1, “KINASE PROTEIN BINDING INHIBITORS” (Roswell Park Cancer Institute, priority 2011, published 2014)

What was measured:
tumor = assay: Tumor growth in vivo
FAK = FAK (Homo sapiens, UniProt Q05397); assay: FAK Y397 phosphorylation; type: biochemical; details: in vitro
[1] = 7-day multiple-dose MTD toxicologic study of Y15, oral gavage, CD-1 mice; type: in vivo; details: both sexes, CD-1, mouse, in vivo, oral gavage in mice, daily for 7 days
Protocol: (§5) • A 7-day, multiple-dose maximum tolerated dose toxicologic study of the chemical 1,2,4,5-Benzenetetramine tetrahydrochloride (Y15) was performed in CD-1 mice.
(§6) • The chemical 1,2,4,5-Benzenetetramine tetrahydrochloride (Y15) was the test article. Y-15 is a chemical grade compound available through Sigma-Aldrich, The test article was prepared in phosphate buffered saline (PBS). The test article was prepared by the sponsor and delivered to the study director prior to the study. The test article was stored in the freezer (0° C.), protected from light.
(§7) • The CD-1 [Hsd:ICR(CD-1)] albino mouse was used. […] Mice were obtained from Harlan (Frederick, Md.). • Mice were acclimated for a minimum of 2 days prior to testing. 20 male and 20 female mice, nulliparous and non-pregnant, were used. Normal weight gain, appearance and behavior were factors used to select healthy mice for testing. Only naive animals were used. Mice weighed 22-35 grams (males) and 20-27 grams (females), and were in good health at the start of the study. Mice were randomly assigned to 4 experimental groups (controls, low-dose, medium-dose, and high-dose) consisting of 5 males and 5 females. Mice were identified via cage cards, tail markings, and ear punch. Mouse identification codes contained information regarding experimental group (C=control, L=low-dose, M=medium-dose, H=high-dose), sex (M=male, F=female), and animal number (1-5). […] Tap water acidified to a pH of 2.5-3.5 was provided in autoclaved water bottles ad libitum. […] Environmental conditions in the animal housing room were maintained at an ambient temperature of 70±3°, relative humidity of 30-70%, and a 12:12 light-dark cycle. Animal housing rooms were ventilated with 100% fresh, HEPA filtered air with 10-15 air changes per hour.
(§8) A 7-day multiple-dose MTD toxicology study was performed.
(§9) The test article Y-15 was prepared in PBS and administered orally (PO) via orogastric gavage as a single daily dose on days 0-6 in the morning. The test article (Y-15) was diluted with the control article (PBS) so as not to exceed a volume of 100 μL. The test article was stored in the freezer (0° C.) and allowed to thaw and come to room temperature prior to administration. Mice were randomly allocated into 4 groups (controls, low-dose, medium-dose, and high-dose) consisting of 5 males and 5 females. Dosages were calculated on a “per mouse” basis, not on a mg/kg basis. […] Mice in the high-dose group received the equivalent of a 300 mg/kg dose for a 20 g mouse (6 mg). Mice in the control group received 100 μL of the control article (PBS). Groups received the following doses, drug concentrations, and gavage volumes, as outlined in Table 2:

CD-1 mice [2] = assay: as above; type: in vivo
Protocol: as §5, §6, §7, §8, §9

[3] = 7-day single-dose MTD toxicologic study of Y15, oral gavage, CD-1 mice; type: in vivo; details: both sexes, CD-1, mouse, in vivo, po
Protocol: (§1) • A 7-day, single-dose maximum tolerated dose toxicologic study of the chemical 1,2,4,5-Benzenetetramine tetrahydrochloride (Y-15) was performed in CD-1 mice.
(§2) • The chemical 1,2,4,5-Benzenetetramine tetrahydrochloride (Y-15) was the test article. Y-15 is a chemical grade compound available through Sigma-Aldrich. The test article was prepared in phosphate buffered saline (PBS). The test article was prepared by the sponsor and delivered to the study director prior to the study. The test article was stored in the freezer (0° C.), protected from light.
(§3) • The CD-1 [Hsd:ICR(CD-1)] albino mouse was used. The CD-1 mouse is conventionally used in toxicity tests to provide information on which human hazards can be judged, and is one of the choices of species preferred by regulatory agencies. Mice were obtained from Harlan (Frederick, Md.). • Mice were acclimated for a minimum of 2 days prior to testing. […] mice, nulliparous and non-pregnant, were used. Normal weight gain, appearance and behavior were factors used to select healthy mice for testing. Only naive animals were used. Mice were 4-7 weeks old, weighed 22-34 grams (males) and 19-24 grams (females), and were in good health at the start of the study. Mice were 5-8 weeks old, weighed 23-36 grams (males) and 20-25 grams (females) at the conclusion of the study. • Mice were randomly assigned to 8 experimental groups consisting of 3 males and 3 females which received increasing doses of the chemical Y-15. Mice were identified via cage cards, tail markings, and ear punch. Mouse identification codes contained information regarding experimental group (A=15 mg/kg dose group, B=30 mg/kg dose group, C=60 mg/kg dose group, D=90 mg/kg dose group, E=120 mg/kg dose group, F=150 mg/kg dose group, G=200 mg/kg dose group, and H=250 mg/kg dose group), sex (M=male, F=female), and animal number (1-3). Mice were fed autoclaved Harlan-Teklad sterilizable 7012 mouse/rat diet ad libitum. The feed is routinely analyzed by the manufacturer for nutritional components and environmental contaminants. Tap water acidified to a pH of 2.5-3.5 was provided in autoclaved water bottles ad libitum. Municipal water supply is analyzed by the Bureau Veritas Consumer Product Services of Buffalo, NY on an annual basis. […]
(§4) • The test article 1,2,4,5-Benzenetetramine tetrahydrochloride (Y15) was prepared in PBS and administered orally (PO) via orogastric gavage as a single dose on day 0 in the morning. […] Dosages were calculated on a “per mouse” basis, not on a mg/kg basis. […]

CD-1 mice [4] = assay: as above; type: in vivo
Protocol: as §1, §2, §3, §4

FAK, sequence (Q05397 whole entry): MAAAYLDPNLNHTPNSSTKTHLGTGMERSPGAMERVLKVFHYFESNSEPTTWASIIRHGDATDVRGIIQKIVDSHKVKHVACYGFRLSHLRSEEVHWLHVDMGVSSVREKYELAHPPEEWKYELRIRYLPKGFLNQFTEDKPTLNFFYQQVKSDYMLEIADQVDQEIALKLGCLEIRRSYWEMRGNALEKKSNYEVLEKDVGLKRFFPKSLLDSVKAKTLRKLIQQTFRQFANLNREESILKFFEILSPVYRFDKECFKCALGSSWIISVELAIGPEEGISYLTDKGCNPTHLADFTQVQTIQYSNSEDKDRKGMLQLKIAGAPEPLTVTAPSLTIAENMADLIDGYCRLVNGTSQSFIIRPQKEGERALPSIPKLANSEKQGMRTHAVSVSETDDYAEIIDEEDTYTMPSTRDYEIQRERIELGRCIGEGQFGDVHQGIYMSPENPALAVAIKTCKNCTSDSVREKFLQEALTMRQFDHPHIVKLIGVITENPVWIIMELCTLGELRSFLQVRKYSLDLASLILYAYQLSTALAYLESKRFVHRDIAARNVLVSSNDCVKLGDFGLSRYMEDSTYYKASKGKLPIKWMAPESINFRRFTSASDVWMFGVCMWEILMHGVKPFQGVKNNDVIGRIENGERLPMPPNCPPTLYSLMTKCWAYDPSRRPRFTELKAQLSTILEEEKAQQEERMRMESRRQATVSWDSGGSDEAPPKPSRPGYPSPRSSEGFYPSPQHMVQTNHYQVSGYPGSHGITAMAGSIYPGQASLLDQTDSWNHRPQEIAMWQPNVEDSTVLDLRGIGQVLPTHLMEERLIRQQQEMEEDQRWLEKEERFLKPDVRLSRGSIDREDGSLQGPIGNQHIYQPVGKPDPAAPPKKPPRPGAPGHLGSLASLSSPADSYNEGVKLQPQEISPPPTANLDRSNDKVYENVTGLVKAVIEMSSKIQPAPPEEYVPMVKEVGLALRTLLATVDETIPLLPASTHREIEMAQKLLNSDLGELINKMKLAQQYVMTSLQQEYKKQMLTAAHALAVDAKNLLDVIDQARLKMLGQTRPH

Cl.Cl.Cl.Cl.Nc1cc(N)c(N)cc1N [Y15, 1,2,4,5-benzenetetraamine tetrahydrochloride]
tumor growth in vivo (tumor): blocks tumor growth in vivo
Y397-phosphorylation of FAK in vitro (FAK): directly and specifically decreases
MTD at 7 days [1]: ≥ 100 mg/kg
NOAEL at 7 days ([1]; read-out: no observable adverse effects level (NOAEL)): 100 mg/kg
maximal tolerated dose (summary statement) (CD-1 mice [2]; delivery 5 days/week, duration 7 days): 200 mg/kg
toxicity findings, medium-dose group (CD-1 mice [2]; oral gavage daily days 0-6, 100 mg/kg): no mortality, clinical signs of toxicity, or decrement in mean body weight
toxicity findings, high-dose group (CD-1 mice [2]; oral gavage daily days 0-6, 200 mg/kg): weight loss, severe clinical signs of abdominal distention, and mortality due to gastrointestinal dilatation
MTD at 7 days [3]: 200 mg/kg
maximal tolerated dose (summary statement) (CD-1 mice [4]; delivery once /week, duration 7 days): 250 mg/kg
toxicity findings, other dose groups (CD-1 mice [4]; single oral gavage dose, 15-200 mg/kg groups): no mortality, adverse clinical signs, or decrement in body weight greater than 10%
mortality, highest dose group (CD-1 mice [4]; single oral gavage dose, group H 250 mg/kg): mortality was seen
